Assay results reported in patent US20230181659A1, “PHAGE-MEDIATED DELIVERY OF GENES TO GUT MICROBIOME” (priority 2020, published 2023).

Columns and labels:
Sm^R MG1655 E. coli = experiment: Selection of resistant E. coli subpopulation in mouse gut with β-lactam in drinking water; assay type: in vivo; conditions: mice on water containing streptomycin and ampicillin; gavaged 99.9% Amp^S / 0.1% Amp^R; within 1-2 days
Experimental: Mouse experiments with E. coli engraftment, antibiotic water, and phage treatment. Animal procedures were approved by the University of California, San Francisco (UCSF) Institutional Animal Care and Use Committee (IACUC), and animal experiments performed were in compliance with ethical regulations. Specific pathogen free female BALB/c mice from the vendor Taconic were used for all mouse experiments. Streptomycin water was prepared by dissolving USP grade streptomycin sulfate (VWR 0382) in autoclaved tap water to a final concentration of 5 mg/ml and passing through 0.45 μm filtration units. Mice were provided streptomycin water for 1 day, followed by oral gavage of 0.2 ml containing approximately 10^9 CFU of streptomycin-resistant E. coli. Mice were kept on streptomycin water thereafter to maintain colonization. For selection with β-lactam antibiotics, USP grade ampicillin sodium salt (Teknova A9510) or USP grade carbenicillin disodium salt (Teknova C2110) was also dissolved in the water to a final concentration of 1 mg/ml; carbenicillin was preferred for its increased stability over ampicillin (Bobrowski, M. & Borowski, E. et al., Microbiology, 68, 263-272 (1971)). Drinking water containing streptomycin was prepared fresh weekly; with the addition of a β-lactam antibiotic, it was prepared fresh every 3-4 days. […]

[1] = tested on: Sm^R E. coli MG1655 or W1655 F+; experiment: Eradication of sensitive E. coli colonizing the mouse gut by carbenicillin water; assay type: in vivo
Experimental: Mouse experiments with E. coli engraftment, antibiotic water, and phage treatment. Animal procedures were approved by the University of California, San Francisco (UCSF) Institutional Animal Care and Use Committee (IACUC), and animal experiments performed were in compliance with ethical regulations. Specific pathogen free female BALB/c mice from the vendor Taconic were used for all mouse experiments. Streptomycin water was prepared by dissolving USP grade streptomycin sulfate (VWR 0382) in autoclaved tap water to a final concentration of 5 mg/ml and passing through 0.45 μm filtration units. Mice were provided streptomycin water for 1 day, followed by oral gavage of 0.2 ml containing approximately 10^9 CFU of streptomycin-resistant E. coli. Mice were kept on streptomycin water thereafter to maintain colonization. For selection with β-lactam antibiotics, USP grade ampicillin sodium salt (Teknova A9510) or USP grade carbenicillin disodium salt (Teknova C2110) was also dissolved in the water to a final concentration of 1 mg/ml; carbenicillin was preferred for its increased stability over ampicillin (Bobrowski, M. & Borowski, E. et al., Microbiology, 68, 263-272 (1971)). Drinking water containing streptomycin was prepared fresh weekly; with the addition of a β-lactam antibiotic, it was prepared fresh every 3-4 days. For phage treatment, filtered phage solutions stored at −80° C. were thawed and used directly for oral gavage. Unfiltered phage solutions were precipitated by diluting approximately 5-fold in PBS, adding 0.2 volumes phage precipitation solution (20% PEG-8000, 2.5 M NaCl), incubating for 15 min on ice, pelleting at 15,000-21,000 g for 15 min at 4° C., resuspending in PBS, centrifuging to pellet insoluble matter, and filtering through 0.45 μm. Heat-inactivated phage were prepared by incubating 1 ml aliquots at 95° C. in a water bath for 30 min. Streptomycin-treated mice colonized with Sm^R E. coli were orally gavaged with 0.2 ml of phage and placed on drinking water containing both streptomycin and carbenicillin.
Enumeration and culture of E. coli from mouse feces. […]

[2] = Carbenicillin bioassay of culture supernatants; conditions: co-cultures expressing β-lactamase; 4 hours of growth; detection limit approximately 2.5 μg/ml
Experimental: Carbenicillin bioassay. Cultures were sampled over time, cells were pelleted at 21,000 g for 1 min, and the supernatant was transferred to a new tube and frozen at −20° C. until all timepoints were collected. The supernatants were thawed and assayed using a Kirby-Bauer disk diffusion test. An overnight culture of the indicator organism (Bacillus subtilis 168) was diluted in saline to an OD600 of 0.1. A cotton swab was dipped into this dilution and spread across LB agar, antibiotic sensitivity disks (Fisher Scientific S70150A) were overlaid using tweezers, and 20 μl of the supernatant was applied to the disk. At the same time, carbenicillin standards were prepared from 1 μg/ml to 100 μg/ml and also applied to discs. Plates were incubated overnight at 37° C. and imaged the following morning.

gut microbiota = experiment: 16S rRNA gene sequencing of streptomycin-treated mice; assay type: in vivo; conditions: streptomycin water 5 mg/ml
Experimental: 16S rRNA gene sequencing. Mouse fecal pellets were stored at −80° C. DNA was extracted from single pellets using a ZymoBIOMICS 96 MagBead DNA Kit and 16S rRNA gene sequencing was performed using a dual indexing strategy (Gohl, D. M. et al., Nat. Biotechnol. 34, 942-949 (2016)). Briefly, a 22-cycle primary PCR was performed using KAPA HiFi Hot Start DNA polymerase (KAPA KK2502) and V4 515F/806R Nextera primers. The reaction was diluted in UltraPure DNase/RNase-free water (Life Tech 0977-023) and used as template for a 10-cycle secondary (indexing) PCR using sample-specific dual indexing primers. […] The DNA was gel extracted using a MinElute Gel Extraction Kit (Qiagen 28604), quantified by qPCR using a KAPA Library Quantification Kit for Illumina Platforms (KAPA KK4824), and paired-end sequenced on the Illumina MiSeq platform. Data were processed using a 16S rRNA gene analysis pipeline (https://github.com/jbisanz/AmpliconSeq) based on QIIME2 (Bolyen, E. et al., Nat. Biotechnol. 37, 852-857 (2019)) incorporating DADA2 (Callahan, B. J. et al., Nat. Methods, 13, 581-583 (2016).), and analyzed using R packages qiime2R v0.99.23 (https://github.com/jbisanz/qiime2R), phyloseq v1.33.0 (McMurdie, P. J. & Holmes, S., PLoS One, 8, e61217 (2013)), and phylosmith v1.0.4 (Smith, S. D., Journal of Open Source Software 4, 1442 (2019)). […]

For CC1(C)S[C@@H]2[C@H](NC(=O)[C@H](N)c3ccccc3)C(=O)N2[C@H]1C(=O)O [ampicillin], the “increase in the percent of Amp^R E. coli in feces” value (Sm^R MG1655 E. coli) was 3 orders of magnitude.
In the case of CC1(C)S[C@@H]2[C@H](NC(=O)C(C(=O)O)c3ccccc3)C(=O)N2[C@H]1C(=O)O (stereo partly drawn) [carbenicillin], the “E. coli colonization level over the course of treatment” value ([1]; all mice, below limit of detection) is reported as < 10^2 CFU/g, the “mice with recolonization when selection was lifted” value ([1]; carbenicillin removed on Day 7) is reported as 5/6 and the “median E. coli colonization level” value ([1]; first day of carbenicillin in water, decreased from 9.6×10^9) is reported as 2.0×10^3 CFU/gram feces. The “carbenicillin in culture supernatants” value [2] was “not detectable”.
In the case of [H]/N=C(/N)N[C@H]1[C@H](O)[C@@H](O)[C@H](O[C@@H]2O[C@@H](C)[C@](O)(C=O)[C@H]2O[C@@H]2O[C@@H](CO)[C@H](O)[C@@H](O)[C@@H]2NC)[C@@H](N/C(N)=N\[H])[C@@H]1O [streptomycin], the “effect on gut microbial community” value (gut microbiota) is reported as “altered gut microbial community structure while decreasing diversity and colonization level”.
